Assay results as given in PubChem BioAssay AID328 (DTP/NCI, 2004).
Several values for one entry are separate records, joined by “and”; a condition that tells them apart may be missing. Equal entries are not always repeated. Inconclusive results and toxic doses are left out. How the source made its calls: active means survival T/C of 150% or more; inactive means T/C below 125% in these data.

Tested on: BDF1 mice, P388 leukemia ip, median survival T/C
Assay: NCI In Vivo Anticancer Drug Screen. Data for tumor model P388 Leukemia (intraperitoneal) in B6D2F1 (BDF1) mice
Conditions: endpoint: median survival time, higher = longer survival
Summary of the method: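 Reported as T/C, where T is the survival measurement in dosed animals and C the same measurement in vehicle controls.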

[1] = dose: 200.0 mg/kg/injection, schedule: Q01DX009 (ip), vehicle: saline with Tween-80
[2] = dose: 50.0 mg/kg/injection, schedule: Q01DX009 (ip), vehicle: saline with Tween-80
[3] = dose: 400.0 mg/kg/injection, schedule: Q01DX009 (ip), vehicle: saline with Tween-80
[4] = dose: 100.0 mg/kg/injection, schedule: Q01DX009 (ip), vehicle: saline with Tween-80

Measured: T/C

N#CSc1ncnc2nc[nH]c12
inactive: dose: 3.0 mg/kg/injection, schedule: Q01DX009 (ip), vehicle: alkali diluted with saline 110 % of control | dose: 3.0 mg/kg/injection, schedule: Q04DX003 (ip), vehicle: alkali diluted with saline 100 % of control | dose: 4.0 mg/kg/injection, schedule: Q01DX009 (ip), vehicle: alkali diluted with saline 95 % of control | dose: 6.0 mg/kg/injection, schedule: Q01DX009 (ip), vehicle: alkali diluted with saline 116 % of control | dose: 6.0 mg/kg/injection, schedule: Q04DX003 (ip), vehicle: alkali diluted with saline 95 % of control | dose: 9.0 mg/kg/injection, schedule: Q01DX009 (ip), vehicle: alkali diluted with saline 95 % of control | dose: 12.0 mg/kg/injection, schedule: Q01DX009 (ip), vehicle: alkali diluted with saline 120 % of control | dose: 12.0 mg/kg/injection, schedule: Q04DX003 (ip), vehicle: alkali diluted with saline 100 % of control and 113 % of control

BrC1CC(Br)c2c1c1c(c3c2C(Br)CC3Br)C(Br)CC1Br (centres undefined)
inactive: [1] 90 % of control

O=C(O)COc1ccc(-c2ccc(Br)cc2)cc1
inactive: [2] 90 % of control | [1] 100 % of control | [3] 101 % of control

OC1CC[N-]CC1.OC1CC[N-]CC1.[Cl][Pt+2]([Cl])([Cl])[Cl]
inactive: dose: 25.0 mg/kg/injection, schedule: Q04DX003 (ip), vehicle: saline with Tween-80 109 % of control | dose: 50.0 mg/kg/injection, schedule: Q04DX003 (ip), vehicle: saline with Tween-80 102 % of control

CCOC(=O)c1ccc(Oc2ncc([N+](=O)[O-])s2)cc1
inactive: dose: 1.85 mg/kg/injection, schedule: Q01DX009 (ip), vehicle: saline 90 % of control | dose: 3.71 mg/kg/injection, schedule: Q01DX009 (ip), vehicle: saline 100 % of control | dose: 7.42 mg/kg/injection, schedule: Q01DX009 (ip), vehicle: saline 90 % of control | dose: 10.0 mg/kg/injection, schedule: Q01DX009 (ip), vehicle: saline with Tween-80 90 % of control | dose: 16.0 mg/kg/injection, schedule: Q01DX009 (ip), vehicle: saline with Tween-80 86 % of control | dose: 24.0 mg/kg/injection, schedule: Q01DX009 (ip), vehicle: saline with Tween-80 95 % of control

O=C(Cn1ccc(O)cc1=O)c1ccc(Cl)s1
inactive: [4] 98 % of control | [1] 93 % of control | [3] 104 % of control

COc1cc(NCc2ccc3nc(N)nc(N)c3c2C)cc(OC)c1OC
active: dose: 5.0 mg/kg/injection, schedule: Q01DX009 (ip), vehicle: sodium bicarbonate 154 % of control | dose: 10.0 mg/kg/injection, schedule: Q01DX009 (ip), vehicle: sodium bicarbonate 177 % of control | dose: 20.0 mg/kg/injection, schedule: Q01DX009 (ip), vehicle: saline with Tween-80 255 % of control | dose: 20.0 mg/kg/injection, schedule: Q01DX009 (ip), vehicle: sodium bicarbonate 227 % of control | dose: 30.0 mg/kg/injection, schedule: Q01DX009 (ip), vehicle: saline with Tween-80 398 % of control | dose: 40.0 mg/kg/injection, schedule: Q01DX009 (ip), vehicle: sodium bicarbonate 243 % of control | dose: 50.0 mg/kg/injection, schedule: Q01DX009 (oral), vehicle: sodium bicarbonate 170 % of control
inactive: dose: 12.5 mg/kg/injection, schedule: Q01DX009 (oral), vehicle: sodium bicarbonate 113 % of control | dose: 44.0 mg/kg/injection, schedule: Q01DX009 (ip), vehicle: saline with Tween-80 97 % of control | dose: 67.0 mg/kg/injection, schedule: Q01DX009 (ip), vehicle: saline with Tween-80 95 % of control | dose: 100.0 mg/kg/injection, schedule: Q01DX009 (oral), vehicle: sodium bicarbonate 89 % of control

COc1ccc(OC)c2c(/C=C/c3ccc(N(C)C)cc3)ccnc12
inactive: dose: 12.5 mg/kg/injection, schedule: Q01DX009 (ip), vehicle: saline with Tween-80 108 % of control | dose: 25.0 mg/kg/injection, schedule: Q01DX009 (ip), vehicle: saline with Tween-80 103 % of control | [2] 94 % of control and 110 % of control | [4] 103 % of control | [1] 91 % of control
